We go through one molecule from patent publication US20230391808A1, “PHOSPHAPHENALENE-GOLD(I) COMPLEXES AS CHEMOTHERAPEUTIC AGENTS AGAINST GLIOBLASTOMA” (priority 2020, published 2023).

As a reminder, the IC50 is the concentration needed to halve the response being measured.

Each structure is given as a SMILES string.

For one data set, the system named is NCH82. The experiment in a line: Crystal violet proliferation assay, NCH82. The format is cell-based, human. Conditions: glioblastoma cell line, 48 h exposure, mean of three biological replicates ± standard deviation.
Another data set has as its system NCH89. Briefly: Crystal violet proliferation assay, NCH89. In kind it is cell-based, human. Conditions: glioblastoma cell line, 48 h exposure, mean of three biological replicates ± standard deviation.
The subject of the next data set is NCH149. Briefly: Crystal violet proliferation assay, NCH149. The format is cell-based, human. Conditions: glioblastoma cell line, 48 h exposure, mean of three biological replicates ± standard deviation. The method, then:
In order to investigate the role of the fused phosphaphenalene ring in the bio-activity of the drug, the ability of Compound 5 to inhibit cell proliferation in the glioblastoma cell lines NCH82, NCH89 and NCH149 was examined. For this purpose, cells were incubated with increasing concentrations of Compound 5 and cell proliferation was evaluated by crystal violet assay.
The effect of different compounds on cell growth was evaluated by the crystal violet method as described earlier (J. P. Rigalli et al., Cancer Lett. 2016, 376, 165-172). Briefly, cells were seeded in 96-well plates (10,000 cells/well). After 24 h cell culture medium was replaced by fresh compound-containing medium (ten different concentrations (0.01 to 200 μM μM)). After 48 h of exposure extent of cell proliferation inhibition was determined by crystal violet staining of surviving cells. Therefore, cells were washed and stained with 0.5% crystal violet solution (2.5 g in 100 ml methanol, diluted with 400 ml aqua bidest) for 15 min, rinsed and dried overnight.
(§1) Next, crystal violet was solubilized in methanol and absorbance was measured at 555 nm. The proliferative index was calculated as crystal violet absorption intensity as percentage relative to baseline (no cells) as described before (T. Peters et al., Naunyn Schmiedebergs Arch Pharmacol. 2006, 372, 291-299.) Cell survival plotted against the decimal logarithm of drug concentration in μM (c (of compound x) in μM) and fitted to a sigmoidal dose-response curve using Graph Pad Prism 7.02 (GraphPad Software, San Diego, USA).

Data set [1] has as its system NCH517. The experiment in a line: Crystal violet proliferation assay, brain metastasis NCH517. The format is cell-based, human. Conditions: brain metastasis cell line, 48 h, mean of three biological replicates ± standard deviation.
Description: (§2) Based on the remarkable results obtained with Compound 6, its anti-proliferative effects on a series of different cancer cell lines was investigated. To that end, in addition to the three glioblastoma cell lines described above, Compound 6 was employed on eleven other cancer cell lines including brain metastasis (NCH517, NCH604a and NCH466), meningioma (NCH93 and BenMen-1), IDH-mutant glioma (NCH511b, NCH1618 and NCH3763), and head and neck cancer cell lines (HNO210, HNO199 and HNO97) (Table 3).
(§3) The effect of different compounds on cell growth was evaluated by the crystal violet method as described earlier (J. P. Rigalli et al., Cancer Lett. 2016, 376, 165-172). Briefly, cells were seeded in 96-well plates (10,000 cells/well). […] After 48 h of exposure extent of cell proliferation inhibition was determined by crystal violet staining of surviving cells. […]
as §1

The test system of data set [2] is NCH604a. Briefly: Crystal violet proliferation assay, brain metastasis NCH604a. In kind it is cell-based, human. The note with it: brain metastasis cell line, 48 h, mean of three biological replicates ± standard deviation.
Description: as §2, §3, §1

The subject of data set [3] is NCH466. The experiment in a line: Crystal violet proliferation assay, brain metastasis NCH466. The note with it: brain metastasis cell line, 48 h, mean of three biological replicates ± standard deviation. The format is cell-based, human.
Description: as §2, §3, §1

The test system of data set [4] is NCH93. Briefly: Crystal violet proliferation assay, meningioma NCH93. The format is cell-based, human. Conditions: meningioma cell line, 48 h, mean of three biological replicates ± standard deviation.
Description: as §2, §3, §1

In the next data set the test system is BenMen-1. Briefly: Crystal violet proliferation assay, meningioma BenMen-1. In kind it is cell-based, human. The note with it: meningioma cell line, 48 h, mean of three biological replicates ± standard deviation.
Description: as §2, §3, §1

In another data set the test system is NCH551b. Briefly: CellTiter-Glo proliferation assay, IDH-mutant glioma NCH551b. The format is cell-based, human. The note with it: IDH-mutant glioma cell line, 48 h, mean of three biological replicates ± standard deviation.
Description: as §2
(§4) To assess the effect of Compound 4 and Compound 6 on cell growth of glioma stem-like cells (GSC) and GSC lines derived from IDH-mutant gliomas, cellular ATP levels were measured using the luminescent CellTiter-Glo Assay (Promega Corp, Madison, WI). GCS spheroid cultures were gently dissociated and cell suspensions were seeded in 96-well tissue culture plates (8,000 cells/well, 100 μl/well). After a 24-hour incubation period without any compound freshly reconstituted compound in ten final concentrations ranging from 0.01 μM to 200 μM were added and cells were incubated for 48 hours.
(§5) Before measurement, the plate was equilibrated at room temperature for 30 minutes. […] Next, the plate was incubated for 10 minutes at room temperature and finally, the luminescence was measured. […]
A general note: Cellular ATP, detected with luciferase, serves as a proxy for viable cell number.

In the next data set the test system is NCH1618. The experiment in a line: CellTiter-Glo proliferation assay, IDH-mutant glioma NCH1618. The format is cell-based, human. The note with it: IDH-mutant glioma cell line, 48 h, mean of three biological replicates ± standard deviation.
Description: as §2, §4, §5

For a further data set, the system named is NCH3763. The experiment in a line: CellTiter-Glo proliferation assay, IDH-mutant glioma NCH3763. Conditions: IDH-mutant glioma cell line, 48 h, mean of three biological replicates ± standard deviation. The format is cell-based, human.
Description: as §2, §4, §5

For a further data set, the system named is HNO210. Briefly: Crystal violet proliferation assay, head and neck cancer HNO210. Conditions: head and neck cancer cell line, 48 h, mean of three biological replicates ± standard deviation. The format is cell-based, human.
Description: as §2, §3, §1

For another data set, the system named is HNO199. Briefly: Crystal violet proliferation assay, head and neck cancer HNO199. In kind it is cell-based, human. The note with it: head and neck cancer cell line, 48 h, mean of three biological replicates ± standard deviation.
Description: as §2, §3, §1

For another data set, the system named is HNO97. Briefly: Crystal violet proliferation assay, head and neck cancer HNO97. In kind it is cell-based, human. The note with it: head and neck cancer cell line, 48 h, mean of three biological replicates ± standard deviation.
Description: as §2, §3, §1

Data set [5] has as its system NCH466. The experiment in a line: Annexin V apoptosis assay (flow cytometry), NCH466. In kind it is cell-based, human. Conditions: drug concentration of 2 μM, 48 hours. As for the experimental part: (§6) For this purpose, cells were incubated with different concentrations of Compound 6 for 48 hours and subsequently analyzed by flow cytometry (see representative example in FIG. 4A). Annexin V and propidium iodide (PI) were used as indicators for apoptosis/necrosis.
(§7) To quantitate the extent of apoptosis and necrosis, either annexin V staining combined with DAPI or double labeling of cells with annexin V and propidium iodide (PI) was used. The double labeling allows the distinction between apoptotic (annexin V^pos/DAPI^neg or annexin V^pos/PI^neg) and necrotic (annexin V^pos/DAPI^pos or annexin V^pos/PI^pos) cells. Cells were seeded in a 6-well plate (2.5×10^5/well) and left to attach overnight. […]
(§8) After treatment supernatant containing apoptotic and necrotic cells was collected, cells were harvested, washed, and up to 1×10^6 cells were incubated with FITC-conjugated annexin V antibody diluted in 1:1000 DAPI solution following manufactures instructions (#51-65874X, BD Bioscienes, Franklin Lakes, USA) or incubated with FITC-conjugated annexin V antibody and PI for 15 min following manufacturer instructions (#51-65974X, BD Biosciences, Franklin Lakes, USA). Cells were acquired by flow cytometry using a BD LSRII flow cytometer (BD Bioscienes, Franklin Lakes, USA) and analyzed by FlowJo Software v7.6.5 (TreeStar, Ahland, USA).

Data set [6] relates to NCH517. Briefly: Annexin V apoptosis assay (flow cytometry), NCH517. In kind it is cell-based, human. Conditions: drug concentration of 2 μM, 48 hours. The method, then:
as §6, §7, §8
(Flow cytometry measures light scatter and fluorescence of single cells or particles in a stream.)

In data set [7] the test system is NCH604a. Briefly: Annexin V apoptosis assay (flow cytometry), NCH604a. In kind it is cell-based, human. The note with it: drug concentration of 2 μM, 48 hours. The method, then:
as §6, §7, §8

Data set [8] relates to NCH93. Briefly: Annexin V apoptosis assay (flow cytometry), NCH93. In kind it is cell-based, human. The note with it: drug concentration of 2 μM, 48 hours. The method, then: as §6, §7, §8
The test system of data set [9] is head and neck cancer cell lines. The experiment in a line: Annexin V apoptosis assay (flow cytometry), head and neck cancer cell lines. In kind it is cell-based, human. The note with it: drug concentration of 5 μM, 48 hours. As for the experimental part:
as §6, §7, §8

For data set [10], the system named is cancer cell lines derived from brain metastases, meningiomas, IDH-mutant gliomas and head and neck cancers. Briefly: Annexin V apoptosis assay (flow cytometry), all analyzed cell lines. The format is cell-based, human. The note with it: 48 hours (FIG. 4). As for the experimental part:
as §6, §7, §8

The subject of another data set is NCH82 cell line. Briefly: Drug uptake kinetics by fluorescence microscopy. The format is cell-based, human. As for the experimental part:
Based on the observed high bio-activity and the spectroscopic properties of Compound 6 as an example of the present invention, the drug uptake kinetics was investigated in NCH82 cell line. To this end, cells were treated with increasing concentrations of Compound 6 and its drug uptake was monitored with a fluorescence microscope (excitation/emission 350/455 nm; data not shown).
To measure the uptake kinetics of compound 6 by NCH82 cells, they were seeded in a 96-well plate (5,000 cells/well) and after 24 h, cell culture medium was replaced with compound 6 or DMSO-containing medium (0.1, 1 and 10 μM). Images were taken with a fluorescence microscope (Olympus, Shinjuku, Japan) at 1 h, 24 h and 48 h after treatment initiation. A laser with an excitation/emission spectrum of 350/455 nm was used and images were taken with a 10× objective.

Data set [11] in a line: Stability under controlled thermodynamic conditions upon repetitive cycles of illumination. The format is physicochemical. The note with it: data not shown.
The next data set concerns cancer cell lines. Briefly: Anti-proliferative effects on a series of different cancer cell lines. The format is cell-based, human. The note with it: summary over all cell lines of Table 3; read-out: mean IC50 values in some cell lines.
Description: as §2, §3
Next, crystal violet was solubilized in methanol and absorbance was measured at 555 nm. The proliferative index was calculated as crystal violet absorption intensity as percentage relative to baseline (no cells) as described before (T. Peters et al., Naunyn Schmiedebergs Arch Pharmacol. 2006, 372, 291-299.) Cell survival plotted against the decimal logarithm of drug concentration in μM (c (of compound x) in μM) and fitted to a sigmoidal dose-response curve using Graph Pad Prism 7.02 (GraphPad Software, San Diego, USA). […]

Consider `CC(=O)OC[C@H]1O[C@@H]([S][Au-][P+]2(c3ccccc3)c3ccn(C)c3-c3cccc4cccc2c34)[C@H](OC(C)=O)[C@@H](OC(C)=O)[C@@H]1OC(C)=O` (stereo partly drawn) [Compound 6], for which the IC50 in the data set on NCH82 came to 730 nM; in the data set on NCH89, 4000 nM; with NCH149, 870 nM; in the data set with NCH517 [1], 1600 ± 300 nM; in the data set on NCH604a [2] it was 1860 ± 140 nM; with NCH466 [3] it was 1010 ± 20 nM. Further, the IC50 in the data set with NCH93 [4] was 1350 ± 90 nM; with BenMen-1, 1320 ± 120 nM; with NCH551b, 1230 ± 250 nM; in the data set on NCH1618, 880 nM; in the data set on NCH3763, 5210 ± 310 nM; in the data set on HNO210, 1100 ± 80 nM. In addition, the IC50 was 2650 ± 250 nM with HNO199, 5510 ± 1040 nM in the data set with HNO97 and around 1500 nM in the data set with cancer cell lines. For the same molecule, the “cells in apoptosis/necrosis, NCH466” value with NCH466 [5] is on record as “more than 50%”. Further, in the data set with NCH517 [6], the “cells in apoptosis/necrosis, NCH517” value is reported as “more than 50%”. For the same molecule, in the data set with NCH604a [7], the “cells in apoptosis/necrosis, NCH604a” value was “more than 50%”. Moreover, in the data set on NCH93 [8], the “cells in apoptosis/necrosis, NCH93” value is “more than 50%”. In addition, in [9], the “cells in apoptosis/necrosis, head and neck cancer cell lines” value is recorded as “more than 50%”. Further, in [10], the “induction of apoptosis/necrosis in all analyzed cell lines” value is “able to induce apoptosis/necrosis”. Moreover, in the data set with NCH82 cell line (0.1 μM), the “time after treatment initiation at which dead cells were first observed” value was 48 h. The “time after which cell death could be observed” value with NCH82 cell line (1 μM) was found to be 24 h. The “stability upon repetitive cycles of illumination” value in [11] is reported as “very high stability”.
